Experimental data reported in ChEMBL document CHEMBL4138296, “Nonacidic Chemotype Possessing N-Acylated Piperidine Moiety as Potent Farnesoid X Receptor (FXR) Antagonists” (ACS Med Chem Lett, 2018).
pIC50: −log10 of the molar value. Active and inactive are the calls of the source. No cut-off for these calls is given here.

How the values were obtained:
[1] = target: T1, Oxysterols receptor LXR-beta (Homo sapiens) (UniProt P55055); assay: Antagonist activity at LXRbeta (unknown origin) assessed as inhibition of TO901317-induced response at 1 uM by luciferase reporter gene assay
T1 sequence (whole entry): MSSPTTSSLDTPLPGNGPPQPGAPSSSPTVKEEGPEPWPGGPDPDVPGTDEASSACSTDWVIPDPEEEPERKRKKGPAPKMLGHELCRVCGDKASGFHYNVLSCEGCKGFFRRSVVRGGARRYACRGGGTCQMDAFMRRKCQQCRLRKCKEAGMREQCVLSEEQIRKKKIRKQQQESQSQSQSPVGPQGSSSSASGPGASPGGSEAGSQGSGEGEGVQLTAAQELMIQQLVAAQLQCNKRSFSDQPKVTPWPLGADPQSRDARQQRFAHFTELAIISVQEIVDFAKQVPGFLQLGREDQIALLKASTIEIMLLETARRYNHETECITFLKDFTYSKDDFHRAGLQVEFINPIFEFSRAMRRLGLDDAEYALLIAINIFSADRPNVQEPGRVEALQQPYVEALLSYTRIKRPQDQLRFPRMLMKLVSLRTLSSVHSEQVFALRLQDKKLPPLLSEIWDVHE

[2] = target: T2, Oxysterols receptor LXR-alpha (Homo sapiens) (UniProt Q13133); assay: Antagonist activity at LXRalpha (unknown origin) assessed as inhibition of TO901317-induced response at 1 uM by luciferase reporter gene assay
T2 sequence (whole entry): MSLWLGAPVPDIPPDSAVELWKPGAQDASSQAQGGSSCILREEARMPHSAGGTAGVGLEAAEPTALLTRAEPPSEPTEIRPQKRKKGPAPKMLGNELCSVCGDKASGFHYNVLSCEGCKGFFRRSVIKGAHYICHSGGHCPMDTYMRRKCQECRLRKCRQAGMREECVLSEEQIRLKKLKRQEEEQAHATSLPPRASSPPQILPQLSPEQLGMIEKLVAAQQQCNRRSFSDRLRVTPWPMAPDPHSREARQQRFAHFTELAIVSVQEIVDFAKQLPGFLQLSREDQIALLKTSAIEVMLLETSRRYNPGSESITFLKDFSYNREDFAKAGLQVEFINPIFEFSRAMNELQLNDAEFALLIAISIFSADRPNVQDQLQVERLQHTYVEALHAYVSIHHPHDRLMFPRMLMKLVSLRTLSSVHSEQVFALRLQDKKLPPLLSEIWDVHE

3T3-L1 [3] = assay: Antiadipogenic activity in mouse 3T3L1 cells assessed as inhibition of CDCA-induced intracellular lipid droplets after 6 days by Oil Red O staining based assay; type: functional, cell-based
Bile acid receptor = target: T3, Bile acid receptor (Homo sapiens, UniProt Q96RI1); assay: Antagonist activity at GST-tagged FXR LBD (unknown origin) assessed as inhibition of GW4064-induced fluorecein-labeled SRC2-2 coactivator recruitment by Lanthascreen TR-FRET assay
T3 sequence (Q96RI1 whole entry): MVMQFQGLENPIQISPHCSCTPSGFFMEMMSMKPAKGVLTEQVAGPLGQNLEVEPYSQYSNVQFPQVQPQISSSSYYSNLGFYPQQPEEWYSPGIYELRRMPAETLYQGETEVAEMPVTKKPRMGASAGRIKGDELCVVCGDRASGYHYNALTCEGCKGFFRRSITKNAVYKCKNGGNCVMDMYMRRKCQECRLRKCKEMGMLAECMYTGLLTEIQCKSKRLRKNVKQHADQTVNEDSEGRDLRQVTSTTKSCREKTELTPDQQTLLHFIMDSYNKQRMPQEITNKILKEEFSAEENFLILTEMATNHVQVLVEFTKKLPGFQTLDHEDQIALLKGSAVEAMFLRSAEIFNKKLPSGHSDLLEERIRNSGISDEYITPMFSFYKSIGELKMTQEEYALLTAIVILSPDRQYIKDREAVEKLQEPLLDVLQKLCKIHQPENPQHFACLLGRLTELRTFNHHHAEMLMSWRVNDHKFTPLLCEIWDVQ

[4] = target: T4, Peroxisome proliferator-activated receptor gamma (Homo sapiens) (UniProt P37231); assay: Antagonist activity at PPARgamma (unknown origin) assessed as inhibition of GW1929-induced response at 1 uM by luciferase reporter gene assay
T4 sequence (whole entry): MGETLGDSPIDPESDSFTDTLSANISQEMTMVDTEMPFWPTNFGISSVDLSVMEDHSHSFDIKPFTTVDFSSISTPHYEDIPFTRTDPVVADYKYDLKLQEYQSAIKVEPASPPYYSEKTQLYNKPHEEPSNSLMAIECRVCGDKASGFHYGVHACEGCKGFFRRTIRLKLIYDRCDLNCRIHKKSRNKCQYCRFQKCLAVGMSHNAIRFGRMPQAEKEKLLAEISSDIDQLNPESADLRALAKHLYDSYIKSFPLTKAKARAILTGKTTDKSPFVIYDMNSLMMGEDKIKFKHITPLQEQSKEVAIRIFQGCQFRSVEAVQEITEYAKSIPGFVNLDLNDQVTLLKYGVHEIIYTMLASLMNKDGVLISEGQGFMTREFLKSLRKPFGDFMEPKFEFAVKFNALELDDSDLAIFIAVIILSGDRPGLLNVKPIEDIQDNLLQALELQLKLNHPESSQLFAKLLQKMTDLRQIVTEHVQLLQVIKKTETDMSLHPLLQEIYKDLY

3T3-L1 [5] = assay: Antiadipogenic activity in mouse 3T3L1 cells assessed as reduction in intracellular lipid droplets after 6 days by Oil Red O staining based assay; type: functional, cell-based
[6] = target: T5, Peroxisome proliferator-activated receptor alpha (Homo sapiens) (UniProt Q07869); assay: Antagonist activity at PPARalpha (unknown origin) assessed as inhibition of GW7647-induced response at 1 uM by luciferase reporter gene assay
T5 sequence (whole entry): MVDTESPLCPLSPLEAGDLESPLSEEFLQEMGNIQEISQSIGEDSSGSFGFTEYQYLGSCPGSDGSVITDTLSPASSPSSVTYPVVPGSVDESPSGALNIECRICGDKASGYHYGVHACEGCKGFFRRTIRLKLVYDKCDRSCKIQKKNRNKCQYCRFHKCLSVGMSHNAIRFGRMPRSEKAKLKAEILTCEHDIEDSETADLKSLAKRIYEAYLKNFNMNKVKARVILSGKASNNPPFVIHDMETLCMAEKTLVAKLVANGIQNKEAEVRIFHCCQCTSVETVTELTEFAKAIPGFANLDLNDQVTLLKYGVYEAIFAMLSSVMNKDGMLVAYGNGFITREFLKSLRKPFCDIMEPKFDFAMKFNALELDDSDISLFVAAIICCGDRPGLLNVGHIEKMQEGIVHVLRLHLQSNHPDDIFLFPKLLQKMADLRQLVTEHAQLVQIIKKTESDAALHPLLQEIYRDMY

inhibition [1]: inactive
inhibition [2]: inactive
pIC50 (Bile acid receptor): 7.46
inhibition [4]: inactive
inhibition [6]: inactive
SMILES: Cc1ccc2nc([C@H](CC3CCN(C(=O)C(C)C)CC3)N3C(=O)CN(c4ccc(Oc5ccccc5)cc4)C3=O)n(C)c2c1
inhibition (3T3-L1 [3]): Dose-dependent effect
Activity (3T3-L1 [5]): Dose-dependent effect
